Reference: US7615361B2, “Toxicity screening methods” (Ceetox, Inc., priority 2006, dated 2009)
≈ marks a conversion by molar mass, not a printed value. Like-named read-outs stand apart in the source and are kept apart here.

What was measured:
[1] = MTT reduction; assay type: cell-based, rat; settings: rat
Protocol: (§1) One test compound (Compound A) was received as dry powder and evaluated for potential cytotoxicity in a battery of in vitro assays. The compound was tested using both rat cardiomyocytes (CM) from rat neonates and a rat hepatoma (H4IIE) cell line. […] The cell supernatant or the cells themselves were harvested for biochemical analysis. General cytotoxicity was evaluated by monitoring membrane integrity, mitochondrial function, cell proliferation, oxidative stress, and apoptosis. In addition, interaction with P-glycoprotein (PgP) on H4IIE cells and solubility of the test compound were also assessed. The means of each exposure group (n=3-7) were calculated for each assay performed.
(§2) Experimental Protocol: The test compound was provided and stored at 4° C. until needed. Dosing solutions were prepared in complete culture medium. The rat hepatoma (H4IIE) cell line was used as the test system.
(§3) Tetrazolium Dye Reduction: 3-[4,5-dimethylthiazol-2-yl]

[2] = MTT reduction; assay type: cell-based, rat
Protocol: as §1, §3

[3] = test system: H4IIE cells; assay: Predicted Ctox from Tox-Panel; assay type: cell-based, rat; settings: 24 HR, estimated sustained plasma concentration where toxicity would be expected in vivo
Protocol: Once all data for a given cluster of assays are received, the data are analyzed to obtain a detailed profile of the compound's toxicity. For example, most conveniently, the data are collated over a dose response range on a single graph. In such an embodiment, the measurement evaluated for each parameter (i.e., each indicator of cell health) at any given concentration is plotted as a percentage of a control measurement obtained in the absence of the compound. However, it should be noted that the data need not be plotted on a single graph, so long as all the parameters are analyzed collectively to yield detailed information of the effects of the concentration of the compound on the different parameters to yield an overall toxicity profile. As set forth below, this overall toxicity profile will facilitate a determination of a plasma concentration Ctox that is predicted to be toxic in vivo. Ctox represents an estimate of the sustained plasma concentration in vivo that would result in toxicity, such as hepatotoxicity or hematopoietic toxicity.
Studies such as these indicate that a preferred concentration for setting Ctox is the highest concentration at which there is no observed effect on any of the indicators being measured in the cluster analysis, especially a 24-hour cluster analysis. […] It will be apparent that 24 hour assays are more time-effective, and consequently, the 24 hour NOEL/Ctox represents a preferred data point to select as Ctox in a CATS assay. It will also be apparent that, with further time studies, it may be possible to select an equally suitable Ctox at other CATS assay time points (e.g., between 24 and 72 hours, or less than 24 hours).
In certain embodiments, the predicting comprises performing concentration response analyses of measurements from at least three separate assays that are employed in the cluster analysis. For example, in the cell health cluster, such predicting will involve monitoring the concentration response effect of the compound on a first health indicator which monitors cellular replication, a second cell health indicator which monitors mitochondrial function, and a third cell health indicator which monitors membrane integrity. Of course, it is understood that fourth, fifth, sixth or more cell health indicators also may be employed. From these concentration response analyses, the highest concentration of the chemical compound at which a measurable toxic effect of the chemical compound is not observable, i.e. NOEL, is determined and the Ctox is identified as the concentration that correlates to the NOEL. In choosing the concentrations of the compound for analysis, one of skill in the art should devise a dose response regimen which is selected to provide an indication of cell health at concentrations of at least two concentration values higher than the Ctox concentration.
The Ctox (H4IIE) value was developed using 24 hr in vitro toxicity data and was validated by retrospectively evaluating compounds across different classes of drugs in 14-day rat studies in which compounds were administered on a daily basis and pharmacokinetic data was available. […] Thus, Ctox values are only determined for the 24 hr in vitro results. The 6 hr toxicity analyses are typically not performed but are beneficial for interpretation of results when compound toxicity is high (e.g., Ctox≦20 μM).

[4] = Solubility in culture medium (nephelometry); assay type: physicochemical
Protocol: Solubility: The test compounds were prepared in DMSO and the appropriate amounts were then added to complete medium containing 10% bovine serum […] at 37° C. The samples were evaluated using a light scattering technique and a Nephaloskan instrument.
Solubility Assay: The test compounds were prepared in DMSO and the appropriate amounts were then added to complete medium containing 10% bovine serum at 37° C. The samples were evaluated using a light scattering technique and a Nephaloskan instrument.

[5] = Cell number (propidium iodide); assay type: cell-based, rat; settings: rat
Protocol: as §1, §2
Cell Proliferation: Cell proliferation in each well was measured with propidium iodide (PI). This specific nucleic acid binding dye fluoresces when intercalated within the nucleic acids. The 15 nm shift enhances PI fluorescence approximately 20 times while the excitation maxima are shifted 30-40 nm. During method development experiments, it was determined that Triton-X-100 was the best solution to permeabilize the H4IIE cells thereby allowing the PI access to intracellular RNA and DNA. Fluorescence was measured using a Packard Fusion plate reader or equivalent reader at 540 nm excitation and 610 nm emission.
Cell Proliferation: After incubation, the test compound was removed and Triton X-100 solution containing propidium iodide is added. The plate was incubated and read on a fluorescent plate reader. Data was collected as relative fluorescent units (RFU). The blank was subtracted from the final well RFU. It represents the average of the first and last columns which contain no cells on that particular plate. The controls are untreated cells allowed to grow on the same plate. The compounds are represented by several separate RFU data points for each of the tested concentrations. The percent change relative to controls was calculated by dividing the average RFU by the control cell RFU and multiplying by 100.

[6] = dosing medium with 20% serum, 37° C., CM 24 HR, read-out: Highest Soluble Concentration Tested
[7] = dosing medium with 20% serum, 37° C., H4IIE 24 HR, read-out: Highest Soluble Concentration Tested
[8] = 37 °C, plasma or biological fluid, kinetic from dmso stock, dosing medium with 20% serum, 37° C., CM 24 HR, read-out: Highest Soluble Concentration Tested
[9] = 37 °C, plasma or biological fluid, kinetic from dmso stock, dosing medium with 20% serum, 37° C., H4IIE 24 HR, read-out: Highest Soluble Concentration Tested
[10] = H4IIE rat hepatoma cells, H4IIE, 24 HR exposure, read-out: MTT TC50
[11] = neonatal rat cardiomyocytes, rat cardiomyocytes (CM), 24 HR exposure, read-out: MTT TC50
[12] = dosing (complete culture) medium with 20% serum, plasma or biological fluid, kinetic from dmso stock, dosing medium with 20% serum, 37° C., CM 24 HR, read-out: Highest Soluble Concentration Tested
[13] = H4IIE rat hepatoma cells, H4IIE, 24 HR exposure, read-out: Cell Number TC50
[14] = plasma or biological fluid, kinetic from dmso stock, dosing medium with 20% serum, 37° C., CM 24 HR, read-out: Highest Soluble Concentration Tested

Row | SMILES | CC50 at 24 h ([1]; MTT TC50) [µM] | CC50 at 24 h ([2]; rat) [µM] | Predicted Ctox [3] [µM] | solubility [4, 6] [µM] | solubility [4, 7] [µM] | CC50 at 24 h ([5]; Cell Number TC50) [µM] | other results
1 | Nc1nc(NC2CC2)c2ncn([C@H]3C=C[C@@H](CO)C3)c2n1 [ABACAVIR, abacavir] | > 300 | > 300 | 65 | 300 (≈ 85.9 µg/mL) | 300 (≈ 85.9 µg/mL) | > 300 | 
2 | COc1cccc2c1C(=O)c1c(O)c3c(c(O)c1C2=O)C[C@@](O)(C(=O)CO)C[C@@H]3O[C@H]1C[C@H](N)[C@H](O)[C@H](C)O1 [ADRIAMYCIN, Adriamycin] | 13 | 1 | 1 |  |  | 18 | CC50 at 1 h ([2]; rat): > 300 µM; CC50 at 3 h ([2]; rat): 41 µM; CC50 at 6 h ([2]; rat): 18 µM; Predicted Ctox ([3]; listed as DOXORUBICIN): 7 µM; solubility ([4]; 37 °C, plasma or biological fluid, kinetic from dmso stock, dosing medium with 20% serum, 37° C., CM 1 HR, read-out: Highest Soluble Concentration Tested): 100 µM (≈ 54.4 µg/mL); solubility ([4]; 37 °C, plasma or biological fluid, kinetic from dmso stock, dosing medium with 20% serum, 37° C., CM 3 HR, read-out: Highest Soluble Concentration Tested): 100 µM (≈ 54.4 µg/mL); solubility ([4]; 37 °C, plasma or biological fluid, kinetic from dmso stock, dosing medium with 20% serum, 37° C., CM 6 HR, read-out: Highest Soluble Concentration Tested): 100 µM (≈ 54.4 µg/mL); solubility [4, 8]: 100 µM (≈ 54.4 µg/mL); solubility [4, 9]: 100 µM (≈ 54.4 µg/mL); solubility ([4]; dosing medium with 20% serum, 37° C., H4IIE 24 HR, listed as DOXORUBICIN, read-out: Highest Soluble Concentration Tested): 300 µM (≈ 163 µg/mL)
3 | CC[C@@]1(O)C(=O)OCc2c1cc1n(c2=O)Cc2cc3ccccc3nc2-1 [CAMPTOTHECIN, Camptothecin] |  |  | 0.1 |  |  |  | CC50 at 24 h [1, 10]: 1 µM; CC50 at 24 h [2, 11]: > 300 µM; solubility ([4]; culture medium with 20% serum, 37 °C, plasma or biological fluid, kinetic from dmso stock, culture media containing 20% serum, NRK 6 HR, read-out: Highest Soluble Concentration): 50 µM (≈ 17.4 µg/mL); solubility [4, 12]: 10 µM (≈ 3.48 µg/mL); solubility ([4]; dosing medium (complete culture medium with serum), plasma or biological fluid, kinetic from dmso stock, dosing medium, 37° C., SK-MEL28 24 HR, read-out: Highest Soluble Concentration): 10 µM (≈ 3.48 µg/mL); solubility ([4]; plasma or biological fluid, kinetic from dmso stock, dosing medium, 37° C., HUVEC 24 HR, read-out: Highest Soluble Concentration): 10 µM (≈ 3.48 µg/mL); CC50 at 24 h [5, 13]: 4 µM
4 | COc1cccc2c1C(=O)c1c(O)c3c(c(O)c1C2=O)C[C@@](O)(C(C)=O)C[C@@H]3O[C@H]1C[C@H](N)[C@H](O)[C@H](C)O1 [DAUNORUBICIN, daunorubicin] |  | 6 | 3 |  |  |  | CC50 at 24 h [1]: 14 µM; solubility [4, 14]: 100 µM (≈ 52.8 µg/mL); CC50 at 24 h [5]: 8 µM
5 | CC(C)Nc1cccnc1N1CCN(C(=O)c2cc3cc(NS(C)(=O)=O)ccc3[nH]2)CC1 [DELAVIRDINE, delavirdine] | 218 | 252 | 68 | 300 (≈ 137 µg/mL) | 300 (≈ 137 µg/mL) | > 300 | 
6 | O=C1Nc2ccc(Cl)cc2[C@@](C#CC2CC2)(C(F)(F)F)O1 [EFAVIRENZ, efavirenz] | 161 | 79 | 58 | 300 (≈ 94.7 µg/mL) | 300 (≈ 94.7 µg/mL) | 169 | 
7 | COc1cccc2c1C(=O)c1c(O)c3c(c(O)c1C2=O)C[C@@](O)(C(=O)CO)C[C@@H]3O[C@H]1C[C@H](N)[C@@H](O)[C@H](C)O1 [EPIRUBICIN, epirubicin] | 81 | 16 | 8 | 300 (≈ 163 µg/mL) |  | 31 | solubility [4, 9]: 100 µM (≈ 54.4 µg/mL)
8 | CC(=O)[C@]1(O)Cc2c(O)c3c(c(O)c2[C@@H](O[C@H]2C[C@H](N)[C@H](O)[C@H](C)O2)C1)C(=O)c1ccccc1C3=O [IDARUBICIN, idarubicin] | 3 | < 1 | 1 |  |  | 4 | solubility [4, 12]: 20 µM (≈ 9.95 µg/mL)
9 | Cc1cccc(C)c1OCC(=O)N[C@@H](Cc1ccccc1)[C@@H](O)C[C@H](Cc1ccccc1)NC(=O)[C@H](C(C)C)N1CCCNC1=O [LOPINAVIR, lopinavir] | 184 | 72 | 60 |  |  | > 300 | solubility [4, 8]: 50 µM (≈ 31.4 µg/mL); solubility [4, 9]: 50 µM (≈ 31.4 µg/mL)
10 | O=C1c2c(O)ccc(O)c2C(=O)c2c(NCCNCCO)ccc(NCCNCCO)c21 [MITOXANTRONE, mitoxantrone] | > 300 | 1 | 11 | 300 (≈ 133 µg/mL) | 300 (≈ 133 µg/mL) | < 1 | 
11 | COc1cccc2c1C(=O)c1c(O)c3c(c(O)c1C2=O)C[C@@](O)(C(=O)CO)C[C@@H]3O[C@H]1C[C@H](N)[C@H](O[C@@H]2CCCCO2)[C@H](C)O1 [PIRARUBICIN, pirarubicin] |  |  | 5 |  |  |  | CC50 at 24 h [1, 10]: 16 µM; CC50 at 24 h [2, 11]: 7 µM; solubility [4, 14]: 50 µM (≈ 31.4 µg/mL); CC50 at 24 h [5, 13]: 8 µM
